# Assay results reported in patent publication US20240247048A1 (EMORY UNIVERSITY, priority 2021, published 2024).
# System: tumor infiltrating T cells in KPC-Luc tumors
# Experiment: analysis of tumor infiltrating T cells in subcutaneous KPC-Luc tumors (flow cytometry, Nanostring, TCR sequencing, tetramer)
# Type: in vivo, mouse
# Description: FIGS. 19A, 19B, 19C, 19D, 19E, 19F, 19G, 19H and 19I show increased T cell activation and reduced frequency of Tregs in KPC.Luc tumors treated with a combination of VIP-R antagonist and anti-PD-1. Subcutaneous KPC.Luc tumors in C57BL/6 mice treated with ANT008 and/or anti-PD-1 (n=5 per treatment group), were analyzed via flow cytometry 10 days after treatment for proportion of (FIG. 19A) CD4+ and (FIG. 19B) CD8+ T cells expressing Ki67, IFN gamma, IL-4, PD-1 and Tim-3. (FIG. 19C) Representative flow plots showing the gating strategy used to quantify CD25+FoxP3+ Tregs. (FIG. 19D) Percentage of Tregs in tumors of the different treatment groups (n=5 per treatment group). Volcano plot showing differential expression of genes in T cells from (FIG. 19E) ANT008+ isotype IgG (IgG) vs scrambled peptide (Scram)+ isotype IgG, (FIG. 19F) scrambled peptide+anti-PD-1 vs scrambled peptide+isotype IgG and (FIG. 19G) ANT008+anti-PD-1 vs scrambled peptide+isotype IgG (n=3 mice per treatment group). Horizontal black line represents false discovery rate (FDR)<0.1. […] (FIG. 19H) Heat map showing gene expression changes in genes associated with TCR activation and co-stimulation. (FIG. 19I) TCR activation and co-stimulation pathway score between the T cells in tumors of mice from the different treatment groups. Statistical differences in FIGS. 19A, 19B, 19D and 19I were calculated via ANOVA followed by Dunnett's post-test. Error bars show mean±SEM *p<0.05, **p<0.001, ***p<0.0001.
# (FIG. 20A) Box and whiskers plot showing Shannon's Entropy in T cells of KPC.Luc tumors in each treatment group. (FIG. 20B) List showing TCR-0 amino acid sequences shared between samples of each treatment group and (FIG. 20C) the frequencies of the shared clones in each treatment group. Sequences are color coded to represent number of mice per group (n=4) that share the specific TCR-β clone. CD8+ in subcutaneous KPC.Luc tumors were stained with MuLV p15E-H2Kb tetramer after 10 days of treatment with ANT308 and/or anti-PD-1 (n=3 per treatment group) using the (FIG. 20D) gating strategy and (FIG. 20E) quantified. […] Statistical differences in a and e were calculated via ANOVA followed by Dunnett's post-test and in FIG. 20F and FIG. 20G were calculated using Log-rank test. […]
# Increased T cell activation in tumors of mice treated with a combination of VIP-R antagonist and anti-PD-1. To investigate whether inhibiting VIP-R signaling promotes T cell activation in vivo, the study analyzed tumor infiltrating T cells in subcutaneous KPC-Luc tumors for differences in activation markers. […]
sequence,measurement,setting,value
KPRRPYTDNYTRLRKQMAVKKYLNLILN [ANT008],genes upregulated in TIL (Nanostring),">4-fold change, FDR<0.1, FIG. 19e-19g",no genes significantly upregulated
same,frequency of Tregs within the PDAC tumors,"FIG. 19c, 19d",significantly decreased
same,levels of PD-1+ Tim-3- T cells in CD4+ and CD8+ subsets,"monotherapy, 10 days after treatment, FIG. 19a, 19b",increased
same,number of clones shared by at least 2 samples among top 50 highest frequency TCR clones,"n=4 per group, FIG. 20b",6
